By viability, T/C is commonly meant the ratio of treated to control. A word on the IC50: it is the midpoint of a concentration-inhibition curve.

Where “and” joins values, the source holds several entries; their conditions need not be identical. Equal values may be shown once. Where only a bound is given, the exact number is not on record here.

Data on three compounds can be found in PubChem BioAssay AID1963976 (Molecular Pharmacology Branch, DTP, NCI, 2024).

The test system of the experiment is 435261-313-R-J1-PDC tumor spheroid viability. In words: Anticancer human tumor 435261-313-R-J1-PDC patient-derived colon adenocarcinoma cell line growth inhibition [PI3K]. The following applies: spheroids with HUVEC and MSC; for viability, T/C: stronger effect = lower value. The text has this: Combinatorial screen of targeted agents with the PI3K inhibitors inavolisib, alpelisib, duvelisib, and copanlisib in multi-cell type tumor spheroids
A high-throughput screen of multi-cell type tumor spheroids was designed to identify active combinations of targeted small molecules and PI3K pathway inhibitors. Complex spheroids include a stromal component modeled by human endothelial cells (HUVEC) and fibroblasts modeled by human mesenchymal stem cells (MSCs). The concentration ranges selected for each drug and investigational agent were based upon clinically achievable concentrations if the clinical Cmax of the agent was known.
Compounds. The drugs and investigational agents: inavolisib (NSC800729), alpelisib (NSC765974), duvelisib (NSC772469), copanlisib (NSC816437), ipatasertib (NSC767898), afuresertib (NSC778305), talazoparib (NSC767125), sapanisertib (NSC764658), selumetinib (NSC741078), tovorafenib (DAY101, NSC766906), vemurafenib (NSC761431), ravoxertinib (NSC781343), sotorasib (NSC818433), MRTX1133 (NSC 836407), abemaciclib (NSC 768073), palbociclib (NSC758247), venetoclax (NSC 766270), SY5609 (NSC837396), enzalutamide (NSC755605), and darolutamide (NSC825331), were obtained from the National Cancer Institute (NCI) Developmental Therapeutics Program Chemical Repository. The FDA-approved anticancer drug set is available from the NCI Developmental Therapeutics Program. […] The stock solutions were prepared in dimethyl sulfoxide (DMSO, Sigma-Aldrich, St. Louis, MO, cat. D2650) at 800-fold the tested concentration and stored at -70 degrees C prior to their use. All drugs and investigational agents were tested over a range starting from a high concentration at or near the clinical Cmax and decreasing in half-log increments. If the clinical Cmax for an agent had not been determined, the highest concentration tested was 10 microM.
Cell Culture. All cells were maintained in an incubator at 37 degrees C and 5% CO2 with 95% humidity. The PDC lines were cultured according to standard operating procedures established by the NCI PDMR (https://pdmr.cancer.gov/sops/default.htm). All PDCs were thawed and cultured in Matrigel-coated flasks prepared with a working solution of 1X Ham's F-12 nutrient mix, without supplementation (Invitrogen, Waltham, MA, cat. 11765054), 100 U/mL penicillin-streptomycin (Invitrogen, cat. 15140122), and 2.5% Matrigel (Corning Inc., Corning, NY, cat. 354248) for the first three passages. The 354836-022-R-J1-PDC, 475296-252-R-J1-PDC, and 997726-040-R-J2-PDC lines were cultured in 6A media, which includes advanced DMEM/F-12 (Thermo Fisher Scientific, cat. 12634028), 10 mM HEPES (Thermo Fisher Scientific, cat. 15630080), 1X GlutaMAX supplement (Thermo Fisher Scientific, cat. 35050061), 0.1 mg/mL primocin (InvivoGen, San Diego, CA, cat. ant-pm-2), 10% defined fetal bovine serum, heat inactivated (HyClone Laboratories Inc., Logan, UT, cat. SH30070.03HI), 50% L-WRN conditioned media (ATCC, cat. CRL-3276), 1.25 mM N-Acetyl-L-cysteine (Sigma-Aldrich, cat. A9165), 10 mM nicotinamide (Sigma-Aldrich, cat. N0636), 1X B-27 supplement (Thermo Fisher Scientific, cat. 17504044), 1X N-2 supplement (Thermo Fisher Scientific, cat. 17502048), and 10 microM Y-27632 dihydrochloride (Tocris Bioscience, Bristol, United Kingdom, cat. 1254). The 624824-186-R-J2-PDC line was cultured in 6C/Colon 1B media, which includes all 6A media components plus 50 ng/mL human EGF recombinant protein (Thermo Fisher Scientific, cat. PHG0311). […]
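Also: spheroids exposed to compounds for 7 days.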

Regarding `Cn1ncc(Cl)c1-c1cc(C(=O)NC(CN)Cc2cccc(F)c2)sc1Cl` (stereo unspecified), the viability, T/C is, setting by setting: (compound 0.0316 µM) 104% and 107% and 76.9%; (compound 0.1 µM) 82.6% and 66.1% and 92.1%; (compound 0.316 µM) 70.9% and 90.8% and 66.1%; (compound 1 µM) 26.1% and 32.2% and 54.4%; (compound 3.16 µM) 20.6% and 20.1% and 23.6%; (compound 10 µM) 8.15% and 8% and 9.52%. In addition, the IC50 (curve of compound) was 0.641 µM and 0.571 µM and 0.978 µM.
As to `CNC(=O)c1ccc(N2C(=S)N(c3ccc(C#N)c(C(F)(F)F)c3)C(=O)C2(C)C)cc1F`, the viability, T/C (compound 3.16 µM) was 106% [middle of 4 runs]. Also, the IC50 (curve of compound) is over 10 µM.
Regarding `CCN1CCN(Cc2ccc(Nc3ncc(F)c(-c4cc(F)c5nc(C)n(C(C)C)c5c4)n3)nc2)CC1` + CC(Nc1ccc2c(c1)OCCn1cc(N3C(=O)OCC3C(F)F)nc1-2)C(N)=O, the half-maximal inhibitory concentration (IC50) reads like this: (curve of first compound, second compound 0.00316 µM) 0.124 µM; (curve of first compound, second compound 0.01 µM) 0.0308 µM; (curve of first compound, second compound 0.0316 µM) 0.0206 µM; (curve of first compound, second compound 0.1 µM) under 0.00316 µM; (curve of first compound, second compound 0.316 µM) under 0.00316 µM; (curve of first compound, second compound 1 µM) under 0.00316 µM. Further, the viability, T/C (second compound 0.00316 µM, first compound 0.00316 µM) is 94%; the viability, T/C (second compound 0.00316 µM, first compound 0.01 µM) is 71.5%; the viability, T/C (second compound 0.00316 µM, first compound 0.0316 µM) was 53.1%; the viability, T/C (second compound 0.00316 µM, first compound 0.1 µM) was 66.9%; the viability, T/C (second compound 0.00316 µM, first compound 0.316 µM) was 37%; the viability, T/C (second compound 0.00316 µM, first compound 1 µM) is 33.9%. Moreover, the viability, T/C by setting is: (second compound 0.01 µM, first compound 0.00316 µM) 71.5%; (second compound 0.01 µM, first compound 0.01 µM) 103%; (second compound 0.01 µM, first compound 0.0316 µM) 49.1%; (second compound 0.01 µM, first compound 0.1 µM) 46.4%; (second compound 0.01 µM, first compound 0.316 µM) 33.8%; (second compound 0.01 µM, first compound 1 µM) 33.8%. The viability, T/C runs as follows: (second compound 0.0316 µM, first compound 0.00316 µM) 73.6%; (second compound 0.0316 µM, first compound 0.01 µM) 58.5%; (second compound 0.0316 µM, first compound 0.0316 µM) 47.3%; (second compound 0.0316 µM, first compound 0.1 µM) 29.1%; (second compound 0.0316 µM, first compound 0.316 µM) 28.3%; (second compound 0.0316 µM, first compound 1 µM) 30.5%. The viability, T/C (second compound 0.1 µM, first compound 0.00316 µM) was 37.7%; the viability, T/C (second compound 0.1 µM, first compound 0.01 µM) was 20.3%; the viability, T/C (second compound 0.1 µM, first compound 0.0316 µM) is 25.9%; the viability, T/C (second compound 0.1 µM, first compound 0.1 µM) is 21.1%; the viability, T/C (second compound 0.1 µM, first compound 0.316 µM) was 19.8%; the viability, T/C (second compound 0.1 µM, first compound 1 µM) is 25.3%. Also, the viability, T/C is 17.9% (second compound 0.316 µM, first compound 0.00316 µM); 20.8% (second compound 0.316 µM, first compound 0.01 µM); 16.7% (second compound 0.316 µM, first compound 0.0316 µM); 16.8% (second compound 0.316 µM, first compound 0.1 µM); 17.2% (second compound 0.316 µM, first compound 0.316 µM); 16% (second compound 0.316 µM, first compound 1 µM). The viability, T/C runs as follows: (second compound 1 µM, first compound 0.00316 µM) 17.1%; (second compound 1 µM, first compound 0.01 µM) 15.3%; (second compound 1 µM, first compound 0.0316 µM) 14%; (second compound 1 µM, first compound 0.1 µM) 15.2%; (second compound 1 µM, first compound 0.316 µM) 15.1%; (second compound 1 µM, first compound 1 µM) 13.4%.
